# Experimental data published in patent publication US6596772B1, “Phosphate mimics and methods of treatment using phosphatase inhibitors” (Sugen, Inc., priority 1999, dated 2003).
# Molecular target: T1, PTP EPSILON (Homo sapiens, UniProt P23469)
# T1 construct: made in house; host or cells: Sf-9 insect cells (pFastBac-G2T); a pGEX 6P-1 construct also existed
# Experiment: PTP IC50 assay, pNPP or FDP as substrate
# Assay type: biochemical
# Settings: comparison of R groups; read-out: IC50 Epsilon
# Experimental: (§1) The following in vitro assay procedure is preferred to determine the level of activity and effect of the different compounds of the present invention on one or more of the PTPs. Similar assays can be designed along the same lines for any PTP using techniques well known in the art.
# (§2) The catalytic assays described herein are performed in a 96-well format. The general procedure begins with the determination of PTP optimal pH using a three-component buffer system that minimizes ionic strength variations across a wide range of buffer pH. Next, the Michaelis-Menten constant, or Km, is determined for each specific substrate-PTP system. This Km value is subsequently used as the substrate reaction concentration for compound screening. Finally, the test PTP is exposed to varying concentrations of compound for fifteen minutes and allowed to react with substrate for ten minutes. The results are plotted as percent inhibition versus compound concentration and the IC50 interpolated from the plot.
# (§3) All assays were performed using pNPP or FDP as substrate. The optimum pH was determined for each PTP used.
# (§4) PTPase activity was assayed at 25° C. in a 100-μl reaction mixture containing an appropriate concentration of pNPP or FDP as substrate. The reaction was initiated by addition of the PTP and quenched after 10 min by addition of 50 μl of IN NaOH. The non-enzymatic hydrolysis of the substrate was corrected by measuring the control without the addition of the enzyme. The amount of p-nitrophenol produced was determined from the absorbance at 410 nm. To determine the kinetic parameter, Km, the initial velocities were measured at various substrate concentrations and the data were fitted to the Michaelis equation where velocity=(Vmax*[S])/(Km+[S]), and [S]=substrate reaction concentration.
# (§5) The effect of the compounds on PTP was evaluated at 25° C. using pNPP or FDP as substrate. PTP was pre-incubated for fifteen minutes with various concentrations of compound. Substrate was then added at a fixed concentration (usually equal to the Km previously calculated). After 10 minutes, NaOH was added to stop the reaction. The hydrolysis of pNPP was followed at 410 nm on the Biotek Powerwave 200 microplate scanning spectrophotometer. The percent inhibition was calculated as follows: Percent Inhibition=[(control signal−compound signal)/control signal] ×100%. The IC50 was then determined by interpolation of a percent inhibition versus compound concentration plot.
# (§6) Plasmids designed for bacterial GST-PTP fusion protein expression were derived by insertion of PCR-generated human PTP fragments into pGEX vectors (Pharmacia Biotech). Several of these constructs were then used to subclone phosphatases into pFastBac-1for expression in Sf-9 insect cells. Oligonucleotides used for the initial amplification of PTP genes are shown below. The cDNAs were prepared using the Gilbo BRL superscript preamplification system on RNAs purchased from Clontech.
# The PTPepsilon cDNA was amplified from human placenta single-strand cDNA (Clontech RNA) using the following oligonucleotides: 5′oligo: 5′-[…]-3′ (SEQ ID NO: 6) 3′oligo: 5′-[…]-3′ (SEQ ID NO: 7) After cloning this PCR product into the Bam HI/Xho I sites of pGEX 6P-1, this phosphatase was subcloned using the same restriction sites in pFastBac-G2T.
# T1 sequence (P23469 80-393 limits assumed): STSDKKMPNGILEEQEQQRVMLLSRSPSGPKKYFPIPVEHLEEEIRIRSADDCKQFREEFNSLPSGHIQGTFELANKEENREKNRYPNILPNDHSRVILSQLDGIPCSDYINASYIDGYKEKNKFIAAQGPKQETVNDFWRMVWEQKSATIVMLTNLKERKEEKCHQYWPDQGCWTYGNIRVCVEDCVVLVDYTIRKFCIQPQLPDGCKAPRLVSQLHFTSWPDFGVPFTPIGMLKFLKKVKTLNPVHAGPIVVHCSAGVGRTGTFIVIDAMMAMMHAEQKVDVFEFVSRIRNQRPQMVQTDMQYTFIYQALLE
row,IC50 [µM],Structure (SMILES)
1,16.9,"O=S(=O)(Nc1ccc(Oc2ccc(Oc3ccc(NS(=O)(=O)C(F)(F)F)cc3)cc2)cc1)C(F)(F)F [Example 71, 1,4-Bis(4-trifluoromethylsulfonamidophenoxy)benzene]"

# Same assay, conditions: pNPP or FDP as substrate, 25° C.; read-out: PTP IC50 Epilson
row,Structure (SMILES),IC50 [µM]
1,"O=C(c1ccccc1)N(Cc1ccc(S(=O)(=O)C(F)(F)F)cc1)Cc1ccc(S(=O)(=O)C(F)(F)F)cc1 [Example 3, N,N-Bis(4-trifluoromethylsulfonylbenzyl)benzamide]",28.1
2,"O=C(NCc1ccc(S(=O)(=O)C(F)(F)F)cc1)c1ccc(S(=O)(=O)C(F)(F)F)cc1 [Example 5, N-(4-Trifluoromethylsulfonylbenzyl)-4-trifluoromethylsulfonylbenzamide]",38.6

# Now those with a lower IC50, led by results:
row,IC50 [µM],Structure (SMILES)
1,16.9,"O=S(=O)(Nc1ccc(Oc2ccc(Oc3ccc(NS(=O)(=O)C(F)(F)F)cc3)cc2)cc1)C(F)(F)F [Example 71, 1,4-Bis(4-trifluoromethylsulfonamidophenoxy)benzene]"
2,16.6,"O=S(=O)(c1ccc(CCc2ccc(S(=O)(=O)C(F)(F)F)cc2)cc1)C(F)(F)F [Example 4, 1,2-Bis(4-trifluoromethylsulfonylphenyl)ethane]"
3,8.1,"O=S(=O)(c1ccc(COc2ccc(S(=O)(=O)C(F)(F)F)cc2)cc1)C(F)(F)F [Example 2, 4-Trifluoromethylsulfonylbenzyl 4-trifluoromethylsulfonylphenyl ether]"

# Molecular target: T2, PTP ZETA (Homo sapiens, UniProt P23471)
# T2 construct: made in house; host or cells: E. coli BL-21 (pGEX 6P-1)
# Experiment: PTP IC50 assay, pNPP or FDP as substrate
# Assay type: biochemical
# Settings: 25° C.
# Experimental: as §1, §2, §3, §4, §5, §6
# The PTP Zeta cDNA was amplified from human placenta single strand cDNA (Clontech RNA) using the following oligonucleotides 5′oligo: 5′-[…]-3′ (SEQ ID NO: 10) 3′oligo: 5′-[…]-3′ (SEQ ID NO: 11) and subsequently ligated into pGEX 6P-1 Eco RI/Xho I sites.
# T2 sequence (P23471 1667-2028 limits assumed): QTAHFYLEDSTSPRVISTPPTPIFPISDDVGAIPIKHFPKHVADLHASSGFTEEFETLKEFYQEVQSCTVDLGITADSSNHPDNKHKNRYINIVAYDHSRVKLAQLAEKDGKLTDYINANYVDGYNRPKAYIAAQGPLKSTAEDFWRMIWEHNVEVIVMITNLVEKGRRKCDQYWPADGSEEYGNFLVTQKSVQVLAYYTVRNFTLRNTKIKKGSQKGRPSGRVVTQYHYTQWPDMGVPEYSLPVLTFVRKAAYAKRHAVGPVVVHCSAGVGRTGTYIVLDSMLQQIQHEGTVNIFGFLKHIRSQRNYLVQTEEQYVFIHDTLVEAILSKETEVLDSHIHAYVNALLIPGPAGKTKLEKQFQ
row,Structure (SMILES),IC50 [µM]
1,"O=C(c1ccccc1)N(Cc1ccc(S(=O)(=O)C(F)(F)F)cc1)Cc1ccc(S(=O)(=O)C(F)(F)F)cc1 [Example 3, N,N-Bis(4-trifluoromethylsulfonylbenzyl)benzamide]",> 100
2,"O=C(NCc1ccc(S(=O)(=O)C(F)(F)F)cc1)c1ccc(S(=O)(=O)C(F)(F)F)cc1 [Example 5, N-(4-Trifluoromethylsulfonylbenzyl)-4-trifluoromethylsulfonylbenzamide]",> 100

# Further lines, results first:
row,IC50 [µM],Structure (SMILES)
1,64.3,"O=S(=O)(Nc1ccc(Oc2ccc(Oc3ccc(NS(=O)(=O)C(F)(F)F)cc3)cc2)cc1)C(F)(F)F [Example 71, 1,4-Bis(4-trifluoromethylsulfonamidophenoxy)benzene]"
2,> 100,"O=S(=O)(c1ccc(CCc2ccc(S(=O)(=O)C(F)(F)F)cc2)cc1)C(F)(F)F [Example 4, 1,2-Bis(4-trifluoromethylsulfonylphenyl)ethane]"
3,> 100,"O=S(=O)(c1ccc(COc2ccc(S(=O)(=O)C(F)(F)F)cc2)cc1)C(F)(F)F [Example 2, 4-Trifluoromethylsulfonylbenzyl 4-trifluoromethylsulfonylphenyl ether]"

# Molecular target: T3, PTP MU (Homo sapiens, UniProt P28827)
# T3 construct: made in house; host or cells: E. coli BL-21 (pGEX 6P-1)
# Experiment: PTP IC50 assay, pNPP or FDP as substrate
# Assay type: biochemical
# Settings: comparison of R groups; read-out: IC50 Mu
# T3 sequence (P28827 831-1186 limits assumed): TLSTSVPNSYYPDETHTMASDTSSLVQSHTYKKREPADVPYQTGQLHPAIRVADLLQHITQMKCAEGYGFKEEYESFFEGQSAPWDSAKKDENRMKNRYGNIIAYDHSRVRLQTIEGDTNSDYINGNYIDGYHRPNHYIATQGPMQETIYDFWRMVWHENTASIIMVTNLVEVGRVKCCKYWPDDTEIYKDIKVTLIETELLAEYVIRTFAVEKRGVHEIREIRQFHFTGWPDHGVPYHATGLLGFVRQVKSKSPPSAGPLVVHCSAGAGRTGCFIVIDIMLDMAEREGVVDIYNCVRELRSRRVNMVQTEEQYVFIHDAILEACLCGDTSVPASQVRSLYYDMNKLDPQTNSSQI
row,IC50 [µM],Structure (SMILES)
1,4,"O=S(=O)(Nc1ccc(Oc2ccc(Oc3ccc(NS(=O)(=O)C(F)(F)F)cc3)cc2)cc1)C(F)(F)F [Example 71, 1,4-Bis(4-trifluoromethylsulfonamidophenoxy)benzene]"

# Same assay, conditions: pNPP or FDP as substrate, 25° C.; read-out: PTP IC50 Mu
row,Structure (SMILES),IC50 [µM]
1,"O=C(c1ccccc1)N(Cc1ccc(S(=O)(=O)C(F)(F)F)cc1)Cc1ccc(S(=O)(=O)C(F)(F)F)cc1 [Example 3, N,N-Bis(4-trifluoromethylsulfonylbenzyl)benzamide]",> 100
2,"O=C(NCc1ccc(S(=O)(=O)C(F)(F)F)cc1)c1ccc(S(=O)(=O)C(F)(F)F)cc1 [Example 5, N-(4-Trifluoromethylsulfonylbenzyl)-4-trifluoromethylsulfonylbenzamide]",> 100

# Continued, values first:
row,IC50 [µM],Structure (SMILES)
1,> 100,"O=S(=O)(c1ccc(CCc2ccc(S(=O)(=O)C(F)(F)F)cc2)cc1)C(F)(F)F [Example 4, 1,2-Bis(4-trifluoromethylsulfonylphenyl)ethane]"
2,> 100,"O=S(=O)(c1ccc(COc2ccc(S(=O)(=O)C(F)(F)F)cc2)cc1)C(F)(F)F [Example 2, 4-Trifluoromethylsulfonylbenzyl 4-trifluoromethylsulfonylphenyl ether]"

# Molecular target: T4, PTP MEG2 (Homo sapiens, UniProt P43378)
# T4 construct: made in house; host or cells: E. coli BL-21 (pGEX 6P-1)
# T4 sequence (P43378 262-593 limits assumed): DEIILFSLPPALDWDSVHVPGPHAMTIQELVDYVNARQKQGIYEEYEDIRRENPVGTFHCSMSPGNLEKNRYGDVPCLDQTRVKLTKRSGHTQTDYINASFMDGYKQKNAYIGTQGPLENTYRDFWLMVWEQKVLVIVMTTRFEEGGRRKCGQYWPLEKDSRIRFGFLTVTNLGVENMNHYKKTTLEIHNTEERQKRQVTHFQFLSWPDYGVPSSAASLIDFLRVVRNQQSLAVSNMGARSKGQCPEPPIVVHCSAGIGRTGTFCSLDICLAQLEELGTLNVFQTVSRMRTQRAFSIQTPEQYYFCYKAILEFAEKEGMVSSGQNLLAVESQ
# Experiment: PTP IC50 assay, pNPP or FDP as substrate
# Assay type: biochemical
# Settings: comparison of R groups; read-out: IC50 MEG2
# Experimental: as §1, §2, §3, §4, §5, §6
# The PTP MEG2 cDNA was amplified from human placenta single strand cDNA (Clontech RNA) using the following oligonucleotides: 5′oligo: 5′-[…]-3′ (SEQ ID NO: 8) 3′oligo: 5′-[…]-3′ (SEQ ID NO: 9) and subsequently ligated into pGex 6P-1 Eco RI/Xho I sites.
row,IC50 [µM],Structure (SMILES)
1,39.4,"O=S(=O)(Nc1ccc(Oc2ccc(Oc3ccc(NS(=O)(=O)C(F)(F)F)cc3)cc2)cc1)C(F)(F)F [Example 71, 1,4-Bis(4-trifluoromethylsulfonamidophenoxy)benzene]"

# Same assay, conditions: pNPP or FDP as substrate, 25° C.; read-out: PTP IC50 MEG2
row,Structure (SMILES),IC50 [µM]
1,"O=C(c1ccccc1)N(Cc1ccc(S(=O)(=O)C(F)(F)F)cc1)Cc1ccc(S(=O)(=O)C(F)(F)F)cc1 [Example 3, N,N-Bis(4-trifluoromethylsulfonylbenzyl)benzamide]",85.9
2,"O=C(NCc1ccc(S(=O)(=O)C(F)(F)F)cc1)c1ccc(S(=O)(=O)C(F)(F)F)cc1 [Example 5, N-(4-Trifluoromethylsulfonylbenzyl)-4-trifluoromethylsulfonylbenzamide]",> 100

# Other lines, results leading:
row,IC50 [µM],Structure (SMILES)
1,39.4,"O=S(=O)(Nc1ccc(Oc2ccc(Oc3ccc(NS(=O)(=O)C(F)(F)F)cc3)cc2)cc1)C(F)(F)F [Example 71, 1,4-Bis(4-trifluoromethylsulfonamidophenoxy)benzene]"
2,45.9,"O=S(=O)(c1ccc(CCc2ccc(S(=O)(=O)C(F)(F)F)cc2)cc1)C(F)(F)F [Example 4, 1,2-Bis(4-trifluoromethylsulfonylphenyl)ethane]"
3,62.1,"O=S(=O)(c1ccc(COc2ccc(S(=O)(=O)C(F)(F)F)cc2)cc1)C(F)(F)F [Example 2, 4-Trifluoromethylsulfonylbenzyl 4-trifluoromethylsulfonylphenyl ether]"

# Molecular target: T5, PTP SIGMA (Homo sapiens, UniProt Q13332)
# T5 construct: made in house; host or cells: E. coli BL-21 (pGEX 6P-1)
# T5 sequence (Q13332 1320-1660 limits assumed): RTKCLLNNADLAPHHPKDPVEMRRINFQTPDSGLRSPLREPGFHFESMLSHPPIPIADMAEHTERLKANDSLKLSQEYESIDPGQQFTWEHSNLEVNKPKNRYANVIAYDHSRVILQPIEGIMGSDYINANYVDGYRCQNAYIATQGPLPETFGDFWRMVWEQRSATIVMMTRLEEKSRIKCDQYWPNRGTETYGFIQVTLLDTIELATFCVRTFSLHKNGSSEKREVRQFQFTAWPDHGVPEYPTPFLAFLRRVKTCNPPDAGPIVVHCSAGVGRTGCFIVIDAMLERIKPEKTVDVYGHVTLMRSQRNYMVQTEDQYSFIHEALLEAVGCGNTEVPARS
# Experiment: PTP IC50 assay, pNPP or FDP as substrate
# Assay type: biochemical
# Settings: comparison of R groups; read-out: IC50 Sigma
# Experimental: as §1, §2, §3, §4, §5, §6
# The PTP Sigma cDNA was amplified from human brain single strand cDNA (Clontech RNA) using the following oligonucleotides: 5′oligo: 5′-[…]-3′ (SEQ ID NO: 12) 3′oligo: 5′-[…]-3′ (SEQ ID NO: 13) and subsequently ligated into pGex 6P-1 Eco RI/Xho I sites.
row,IC50 [µM],Structure (SMILES)
1,44,"O=S(=O)(Nc1ccc(Oc2ccc(Oc3ccc(NS(=O)(=O)C(F)(F)F)cc3)cc2)cc1)C(F)(F)F [Example 71, 1,4-Bis(4-trifluoromethylsulfonamidophenoxy)benzene]"

# Same assay, conditions: pNPP or FDP as substrate, 25° C.; read-out: PTP IC50 Sigma
row,Structure (SMILES),IC50 [µM]
1,"O=C(c1ccccc1)N(Cc1ccc(S(=O)(=O)C(F)(F)F)cc1)Cc1ccc(S(=O)(=O)C(F)(F)F)cc1 [Example 3, N,N-Bis(4-trifluoromethylsulfonylbenzyl)benzamide]",42.6
2,"O=C(NCc1ccc(S(=O)(=O)C(F)(F)F)cc1)c1ccc(S(=O)(=O)C(F)(F)F)cc1 [Example 5, N-(4-Trifluoromethylsulfonylbenzyl)-4-trifluoromethylsulfonylbenzamide]",> 100

# Now from value to compound:
row,IC50 [µM],Structure (SMILES)
1,44,"O=S(=O)(Nc1ccc(Oc2ccc(Oc3ccc(NS(=O)(=O)C(F)(F)F)cc3)cc2)cc1)C(F)(F)F [Example 71, 1,4-Bis(4-trifluoromethylsulfonamidophenoxy)benzene]"
2,81.1,"O=S(=O)(c1ccc(CCc2ccc(S(=O)(=O)C(F)(F)F)cc2)cc1)C(F)(F)F [Example 4, 1,2-Bis(4-trifluoromethylsulfonylphenyl)ethane]"
3,30.5,"O=S(=O)(c1ccc(COc2ccc(S(=O)(=O)C(F)(F)F)cc2)cc1)C(F)(F)F [Example 2, 4-Trifluoromethylsulfonylbenzyl 4-trifluoromethylsulfonylphenyl ether]"
